Values after ≈ are worked out from the molar mass of the structure shown.
What was measured:
[1] = test system: SKOV-3 (human ovary adenocarcinoma) cells; experiment: XTT cytotoxicity assay, SKOV-3 cells; format: cell-based; conditions: Homo sapiens, SK-OV-3, second set of experiments, read-out: SKOV-3 % INH [100 μM]
Description: On the first day of the experiment cells were harvested from exponential phase cultures by trypsination, counted and plated into 96 well flat-bottom micro titer plates depending on the cell line as listed below: [table] After a 24 h recovery to allow the cells to resume exponential growth, the test compounds were diluted immediately prior to use and transferred in 25 μl volume to the wells. Following 2 days of continuous drug exposure 50 μl of freshly prepared XTT-PMS solution {2% 0.386 mg/ml PMS (N-Methyl Dibenzopyrazine Methylsulphate; Sigma, Cat. No. […] Serva, Cat. No. 38450) in RPMI 1640 medium without phenol red} was added to the wells. To measure the proportion of living cells, the cells were incubated for 3 h with XTT-PMS reagent at 37° C., 5% CO2, humidified atmosphere allowing to form the formazan salt. […] Inhibition curves were generated and IC50 values calculated by using GraphPad Prism.

[2] = test system: RKOp21 (human colon adenocarcinoma) cells; experiment: XTT cytotoxicity assay, RKOp21 cells; format: cell-based; conditions: Homo sapiens; 31.6 μM, second set of experiments; read-out: RKOp21 % INH [31.6 μM]
Summary of the method: (§1)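 Cells recovered 24 h after plating, then exposed to compounds for 48 h at 37 °C; one set used 10 semi-log concentrations from 100 μM, another 31.6 μM final for PC3 and RKOp21. XTT-PMS added for 3 h, formazan absorbance at 490 nm versus untreated cells; IC50 from inhibition curves.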

[3] = test system: Moraxella catarrhalis DMS 11994 (ATCC 43617); experiment: Anti-bacterial bouillon microdilution assay (MIC), bacterium D; format: cell-based; conditions: ATCC43617, 24 h
Summary of the method: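 Broth microdilution MIC per DIN 58940-5/-7. Twofold compound dilutions in water spanned 256 to 0.125 μg/ml in the test concentration series, with inocula of about 1×10^6 organisms/ml in strain-appropriate media. Growth was read as turbidity at 595 nm before and after incubation, against growth and sterile controls.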

[4] = test system: PC3, RKOp21 and SKOV-3 cell lines; experiment: XTT cytotoxicity assay, mean over all three cell lines; format: cell-based, human; conditions: mean value over all three cell lines
Description: Following 2 days of continuous drug exposure 50 μl of freshly prepared XTT-PMS solution {2% 0.386 mg/ml PMS (N-Methyl Dibenzopyrazine Methylsulphate; Sigma, Cat. No. […] Serva, Cat. No. 38450) in RPMI 1640 medium without phenol red} was added to the wells. To measure the proportion of living cells, the cells were incubated for 3 h with XTT-PMS reagent at 37° C., 5% CO2, humidified atmosphere allowing to form the formazan salt. […] Inhibition curves were generated and IC50 values calculated by using GraphPad Prism. In the following table 7 cytotoxicity results (% inhibition of cell growth) obtained in the second set of experiments for selected compounds of the invention are presented in comparison to examples of the prior art (perifosine, miltefosine). The results presented are individual values for the respective cell line as well as the mean value over all three cell lines tested.

[5] = test system: Streptococcus pneumoniae DSM 20566 (ATCC 33400); experiment: Anti-bacterial bouillon microdilution assay (MIC), bacterium A; format: cell-based; conditions: Streptococcus pneumoniae DSM 20566, 24 h
Description: (§2) Selected compounds of the invention were tested in a bouillon microdilution assay method according to the DIN 58940 (www.din.de) guidelines for determination of susceptibility of bacterial strains with regard to cell growth inhibition. The assay method quantifies bacterial cell growth which corresponds to the turbidity of the liquid culture medium by photometric measurement carried out at 595 nm.
(§3) The method of MIC determination was performed according to DIN 58940-5. The volumina were adapted according to the microdilution method as described in DIN 58940-7 guideline.
(§4) Dependent on water solubility, compounds of the invention were dissolved either in water or ethanol in a concentration of 10 mg/ml. Subsequently, the stock was further diluted in water to a concentration of 512 μg/ml. The following serial dilutions (factor 2) were performed in water resulting in the following […] testing concentrations: 256 μg/ml, 128 μg/ml, 64 μg/ml, 32 μg/ml, 16 μg/ml, 8 μg/ml, 4 μg/ml, 2 μg/ml, 1 μg/ml, 0.5 μg/ml, 0.25 μg/ml and 0.125 μg/ml. Diluted compounds of the invention were transferred in 100 μl volume to the microtiter plate wells.
(§5) Pre-cultures of bacteria were grown in appropriate liquid media (refer to ATCC webpage, www.atcc.org) and afterwards were inoculated in corresponding liquid medium. 100 μl of the inoculums [adjusted to an amount of app. 1×10^6 microorganisms per ml (range of 10^5-10^8 microorganisms per ml)] were added to each of the testing compound concentrations and cultivated under the appropriate conditions.
(§6) Before and after incubation, bacterial growth was determined by photometric analysis against a positive control containing growing bacteria without compound and a sterile/negative control containing only the medium.

[6] = test system: Streptococcus pneumoniae DSM 11967 (ATCC 49619); experiment: Anti-bacterial bouillon microdilution assay (MIC), bacterium B; format: cell-based; conditions: Streptococcus pneumoniae DSM 11967, 24 h
Description: as §2, §3, §4, §5, §6

[7] = test system: PC3 (human prostate carcinoma) cells; experiment: XTT cytotoxicity assay, PC3 cells; format: cell-based; conditions: Homo sapiens, PC-3; 31.6 μM, second set of experiments; read-out: PC3 % INH [31.6 μM]
Summary of the method: as §1

[8] = test system: Bacteroides fragilis DSM 2151 (ATCC 25285); experiment: Anti-bacterial bouillon microdilution assay (MIC), bacterium E; format: cell-based; conditions: anaerob, 24 h
Description: as §2, §3, §4, §5, §6

[9] = test system: Enterococcus faecium DSM 20477 (ATCC 19434); experiment: Anti-bacterial bouillon microdilution assay (MIC), bacterium C; format: cell-based; conditions: Enterococcus faecium DSM 20477, 24 h
Description: as §2, §3
as §4, with “wells. […]” for “wells.”
as §6

[10] = test system: Leishmaniasis; conditions: clinical phase III trials, parenteral; cited from earlier work

| MIC [3] | MIC [5] | MIC [6] | MIC [8] | MIC [9] | Compound | inhibition at 100 µM [1] | inhibition at 31.6 µM [2] | Mean % INH [4] | inhibition at 31.6 µM [7] | efficient in % of the cases [10] |
| --- | --- | --- | --- | --- | --- | --- | --- | --- | --- | --- |
| 4 µg/mL (≈ 8.66 µM) | 8 µg/mL (≈ 17.3 µM) | 4 µg/mL (≈ 8.66 µM) | – | – | CCCCCCCCCCCCCCCCOP(=O)([O-])OCC[N+]1(C)CCCCCC1 [Compound 89, Phosphoric acid hexadecyl ester 2-(1-methyl-azepan-1-yl)-ethyl ester] | 26.1% | 11.3% | 29.3% | 50.6% | – |
| 4 µg/mL (≈ 8.52 µM) | 8 µg/mL (≈ 17 µM) | 4 µg/mL (≈ 8.52 µM) | 64 µg/mL (≈ 136 µM) | 8 µg/mL (≈ 17 µM) | CCCCCCCCCCCCCCCCOP(=O)([O-])OCC[N+](C)(C)c1ccccc1 [Compound 107, Phosphoric acid hexadecyl ester 2-(N-phenyl-N,N-dimethyl-amino)-ethyl ester] | – | – | – | – | – |
| – | – | – | – | – | NC[C@@H]1O[C@H](O[C@H]2[C@@H](O)[C@H](O[C@@H]3[C@@H](O)[C@H](N)C[C@H](N)[C@H]3O[C@H]3O[C@H](CO)[C@@H](O)[C@H](O)[C@H]3N)O[C@@H]2CO)[C@H](N)[C@@H](O)[C@@H]1O [paromomycin, O-2-amino-2-deoxy-alpha-D-glucopyranosyl-(1-4)-O-[O-2,6-diamino-2,6-dideoxy-beta-L-idopyranosyl-(1-3)-beta-D-ribofuranosyl-(1-5)]-2-deoxy-D-streptamine] | – | – | – | – | 95% |

Source: patent publication US20070167408A1, “NOVEL ALKYL PHOSPHOLIPID DERIVATIVES WITH REDUCED CYTOTOXICITY AND USES THEREOF” (ZENTARIS GmbH, priority 2005, published 2007)
